Laboratory results as given in patent US20230174484A1, “ANTAGONISTS OF GPR39 PROTEIN” (Oregon Health & Science University, priority 2020, published 2023).

biological target: T1, human GPR39 receptor (Homo sapiens, UniProt O43194); experiment: Measurement of intracellular calcium response in PC3 cells (FLIPR), antagonism of the C3 agonist response; assay type: cell-based; settings: PC-3, hGPR39 receptor agonist, calcium response, read-out: EC90 (concentration producing 90% of the maximal response)
T1 construct: PC3 Cells, Expressing the Endogenous Human GPR39 Receptor; endogenous in cells; host or cells: PC3 (human prostate adenocarcinoma) cells
T1 sequence (O43194 1-453): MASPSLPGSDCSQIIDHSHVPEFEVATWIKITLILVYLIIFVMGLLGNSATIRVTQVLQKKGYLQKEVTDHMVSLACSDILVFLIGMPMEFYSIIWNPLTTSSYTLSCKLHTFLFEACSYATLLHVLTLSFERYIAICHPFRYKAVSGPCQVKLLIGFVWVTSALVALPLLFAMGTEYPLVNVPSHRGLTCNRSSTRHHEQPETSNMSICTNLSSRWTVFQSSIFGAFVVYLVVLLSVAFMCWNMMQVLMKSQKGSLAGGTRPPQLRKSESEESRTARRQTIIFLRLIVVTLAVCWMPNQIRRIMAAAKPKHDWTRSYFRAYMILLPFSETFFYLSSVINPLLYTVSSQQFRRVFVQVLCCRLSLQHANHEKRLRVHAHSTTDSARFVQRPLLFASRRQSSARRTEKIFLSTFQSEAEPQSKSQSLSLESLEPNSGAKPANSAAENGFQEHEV
In short: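 PC3 cells with endogenous human GPR39 were loaded with Calcium-6 and read by FLIPR, with compounds tested in buffer with 30 μM final ZnCl2 and 0.32% DMSO. Peak Ca2+ signal was scored as % inhibition of the EC90 C3 response, fitted by four-parameter logistic. Functional pKi was derived via the modified Cheng-Prusoff equation.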

EC90 | SMILES
1500 nM | CNc1nc(NCc2ccc(NS(C)(=O)=O)cc2Cl)cc(-c2ccccn2)n1 [Example C3, reference compound]

same assay, conditions: functional pKi (modified Cheng-Prusoff), inhibition of the C3 (TC-G 1008) response at EC90, 30 μM ZnCl2, read-out: fpKi activity

SMILES | Ki
CCCN1CCN(C(=O)c2ccc(NC(=O)C3CC3)cc2N2CCCCCC2)CC1 [Example 36, N-(3-(azepan-1-yl)-4-(4-propylpiperazine-1-carbonyl)phenyl)cyclopropanecarboxamide] | 63.1 to 251 nM
O=C(Nc1ccc(C(=O)N2CCN(Cc3ccccc3F)CC2)c(N2CCCCCC2)c1)C1CC1 [Example 28, N-(3-(azepan-1-yl)-4-(4-(2-fluorobenzyl)piperazine-1-carbonyl)phenyl) Cyclopropanecarboxamide] | 63.1 to 251 nM
O=C(Nc1ccc(C(=O)N2CCC(F)CC2)c(N2CCCC2)c1)C1CC1 [Example 168, N-[4-(4-fluoropiperidine-1-carbonyl)-3-pyrrolidin-1-ylphenyl]cyclopropanecarboxamide] | 316 to 1000 nM
CC1CCN(c2cc(NC(=O)C3CC3)ccc2C(=O)N2CCN(C)CC2c2ccccc2)C1 (single isomer, unassigned) [Example 64c, (2S, 3R) or (2R, 3S) or (2R, 3R) or (2S, 3S) N-[4-(4-methyl-2-phenylpiperazine-1-carbonyl)-3-(3-methylpyrrolidin-1-yl)phenyl] cyclopropanecarboxamide] | ≤ 50.1 nM
CC(C)C1CCN(c2nc(NC(=O)C3CC3)ccc2C(=O)N2CCS(=O)(=O)CC2)C1 (racemic) [Example 142, N-[5-(1,1-dioxo-1,4-thiazinane-4-carbonyl)-6-(3-propan-2-ylpyrrolidin-1-yl)pyridin-2-yl]cyclopropanecarboxamide] | ≤ 50.1 nM
CCCN1CCN(C(=O)c2ccc(NC(=O)C3CC3)cc2N2CC3(CCOCC3)C2)CC1 [Example 4, N-(4-(4-propylpiperazine-1-carbonyl)-3-(7-oxa-2-azaspiro[3.5]nonan-2-yl)phenyl)cyclopropane carboxamide] | 316 to 1000 nM
CN1CCN(c2ccc(CNC(=O)c3ccc(NC(=O)C4CC4)cc3N3CCCCCC3)cc2)CC1 [Example 56, 2-(azepan-1-yl)-4-(cyclopropanecarbonylamino)-N-[[4-(4-methylpiperazin-1-yl)phenyl]methyl]benzamide] | 1260 to 6310 nM
O=C(Nc1ccc(C(=O)N2CCCCC2c2nnnn2Cc2ccccc2)c(N2CCCCCC2)c1)C1CC1 (centres unmarked) [Example 54, N-[3-(azepan-1-yl)-4-[2-(1-benzyltetrazol-5-yl)piperidine-1-carbonyl]phenyl]cyclopropanecarboxamide] | 63.1 to 251 nM
CC(C)c1ccn(-c2cc(NC(=O)C3CC3)ccc2C(=O)N2CCS(=O)(=O)CC2)n1 [Example 179, N-[4-(1,1-dioxo-1,4-thiazinane-4-carbonyl)-3-(3-propan-2-ylpyrazol-1-yl)phenyl]cyclopropanecarboxamide] | ≤ 50.1 nM
CSc1nnc(-c2ccc(NC(=O)C3CC3)cc2N2CCCCCC2)n1C [Example 109, N-[3-(azepan-1-yl)-4-(4-methyl-5-methylsulfanyl-1,2,4-triazol-3-yl)phenyl]Cyclopropanecarboxamide] | 1260 to 6310 nM
CC1CC(C)CN(c2cc(NC(=O)C3CC3)ccc2C(=O)N2CCN(C)CC2c2ccccc2)C1 (single isomer, unassigned) [Example 68a, Syn 2R or 2S N-[3-[3,5-dimethylpiperidin-1-yl]-4-(4-methyl-2-phenylpiperazine-1-carbonyl)phenyl] cyclopropanecarboxamide] | ≤ 50.1 nM
O=C(Nc1ccc(C(=O)N2CCS(=O)(=O)CC2)c(N2CC3CCC2C3)c1)C1CC1 (centres unmarked) [Example 187, N-[3-(3-azabicyclo[2.2.1]heptan-3-yl)-4-(1,1-dioxo-1,4-thiazinane-4-carbonyl)phenyl]cycloprooanecarboxamide] | 316 to 1000 nM
CC1CCN(c2cc(NC(=O)C3CC3)ccc2C(=O)N2CCN(C)CC2c2ccccc2)C1 (single isomer, unassigned) [Example 64a, (2S, 3R) or (2R, 3S) or (2R, 3R) or (2S, 3S) N-[4-(4-methyl-2-phenylpiperazine-1-carbonyl)-3-(3-methylpyrrolidin-1-yl)phenyl] cyclopropanecarboxamide] | ≤ 50.1 nM
CN1CCN(C(=O)c2ccc(NC(=O)C3CC3)cc2N2CCCC2)C(c2ccc(Cl)cc2)C1 (racemic) [Example 176, N-[4-[2-(4-chlorophenyl)-4-methylpiperazine-1-carbonyl]-3-pyrrolidin-1-ylphenyl]cyclopropanecarboxamide] | 316 to 1000 nM
CC1CCN(c2cc(NC(=O)C3CC3)ccc2C(=O)N2CCN(C)CC2c2ccccc2)C1 (single isomer, unassigned) [Example 64d, (2S, 3R) or (2R, 3S) or (2R, 3R) or (2S, 3S) N-[4-(4-methyl-2-phenylpiperazine-1-carbonyl)-3-(3-methylpyrrolidin-1-yl)phenyl] cyclopropanecarboxamide] | 316 to 1000 nM
CN1CCN(C(=O)c2ccc(NC(=O)C3CC3)cc2N2CCCCCC2)C(c2ccccn2)C1 (centres unmarked) [Example 74, N-[3-(azepan-1-yl)-4-(4-methyl-2-pyridin-2-ylpiperazine-1-carbonyl)phenyl]cyclopropanecarboxamide] | 1260 to 6310 nM
O=C(Nc1ccc(C(=O)N2CCS(=O)(=O)CC2)c(-n2ccc(C3CC3)n2)c1)C1CC1 [Example 180, N-[3-(3-cyclopropylpyrazol-1-yl)-4-(1,1-dioxo-1,4-thiazinane-4-carbonyl)phenyl]cyclopropanecarboxamide] | ≤ 50.1 nM
Cn1c(-c2ccccc2)nnc1-c1ccc(NC(=O)C2CC2)cc1N1CCCCCC1 [Example 112, N-[3-(azepan-1-yl)-4-(4-methyl-5-phenyl-1,2,4-triazol-3-yl)phenyl]cyclopropanecarboxamide] | 316 to 1000 nM
O=C(Nc1ccc(C(=O)N2CCN(Cc3ccccc3Cl)CC2)c(N2CCCCCC2)c1)C1CC1 [Example 31, N-(3-(azepan-1-yl)-4-(4-(2-chlorobenzyl)piperazine-1-carbonyl)phenyl) Cyclopropanecarboxamide] | 316 to 1000 nM

Second part, the compound after the results:

Ki | SMILES
63.1 to 251 nM | CN1CCN(C(=O)c2ccc(NC(=O)C3CC3)cc2N2CCCC2)C(c2ccccc2F)C1 (racemic) [Example 84c, N-[4-[2-(2-fluorophenyl)-4-methylpiperazine-1-carbonyl]-3-pyrrolidin-1-ylphenyl]cyclopropanecarboxamide]
63.1 to 251 nM | C[C@@H]1C[C@H](C)CN(c2cc(NC(=O)C3CC3)ccc2-c2ncc3n2CCN(C)C3)C1 [Example 104b, N-[3-(3,5-dimethylpiperidin-1-yl)-4-(7-methyl-6,8-dihydro-5H-imidazo[1,5-a]pyrazin-3-yl)phenyl] cyclopropanecarboxamide]
≤ 50.1 nM | O=C(Nc1ccc(C(=O)N2CCC3(CC2)COC3)c(N2CCC(C(F)(F)F)C2)c1)C1CC1 (single isomer, unassigned) [Example 213a, N-[4-(2-oxa-7-azaspiro[3.5]nonane-7-carbonyl)-3-[3R or 3S-(trifluoromethyl)pyrrolidin-1yl]phenyl]cyclopropanecarboxamide]
63.1 to 251 nM | CC1CC(C)CN(c2cc(NC(=O)C3CC3)ccc2-c2nnc(Sc3ccccc3)n2C)C1 (centres unmarked) [Example 114c, N-[3-(3,5-dimethylpiperidin-1-yl)-4-(4-methyl-5-phenylsulfanyl-1,2,4-triazol-3-yl)phenyl]cyclopropanecarboxamide]
≤ 50.1 nM | CN1CCN(C(=O)c2ccc(NC(=O)C3CC3)cc2N2CCCC2)C(c2ccccc2Cl)C1 (racemic) [Example 170c, N-[4-[2-(2-chlorophenyl)-4-methylpiperazine-1-carbonyl]-3-pyrrolidin-1-ylphenyl]cyclopropanecarboxamide]
1260 to 6310 nM | CN1CCN(C(=O)c2ccc(-c3nnc(C4CC4)[nH]3)cc2N2CCCC2)C(c2ccccc2)C1 (single isomer, unassigned) [Example 151b, (2R or 2S) [4-(5-cyclopropyl-4H-1,2,4-triazol-3-yl)-2-pyrrolidin-1-ylphenyl]-(4-methyl-2-phenylpiperazin-1-yl)methanone]
316 to 1000 nM | Cc1nnc(-c2ccc(C(=O)N3CCN(C)CC3c3ccccc3)c(N3CCC(C(F)(F)F)C3)c2)[nH]1 (single isomer, unassigned) [Example 177b, (2S, 3R) or (2R, 3S) or (2R, 3R) or (2S, 3S) (4-methyl-2-phenylpiperazin-1-yl)-[4-(5-methyl-4H-1,2,4-triazol-3-yl)-2-[3-(trifluoromethyl)pyrrolidin-1-yl]phenyl]methanone]
1260 to 6310 nM | CN1CCN(C(=O)c2ccc(NC(=O)C3CC3)cc2N2CCCCCC2)C(c2cccs2)C1 (single isomer, unassigned) [Example 69a, N-(3-(azepan-1-yl)-4-(4-methyl-2-(thiophen-2-yl)piperazine-1-carbonyl)phenyl) cyclopropane carboxamide]
63.1 to 251 nM | CN1CCN(C(=O)c2ccc(NC(=O)C3CC3)cc2N2CCC(F)(F)C2)C(c2ccccc2)C1 (racemic) [Example 202c, N-[3-(3,3-difluoropyrrolidin-1-yl)-4-(4-methyl-2-phenylpiperazine-1-carbonyl)phenyl]cyclopropanecarboxamide]
